# Measurements from paper PMC6327988 (Journal of Enzyme Inhibition and Medicinal Chemistry, 2019).
# Assays:
# AChE = AChE (Homo sapiens, UniProt P22303); assay: AChE inhibition, Ellman colorimetric method; type: biochemical; conditions: ratio of AChE IC50 values
# BuChE = BuChE (Homo sapiens, UniProt P06276); assay: BuChE inhibition, Ellman colorimetric method; type: biochemical; conditions: ratio of BuChE IC50 values
# Chain of BuChE (P06276 29-602): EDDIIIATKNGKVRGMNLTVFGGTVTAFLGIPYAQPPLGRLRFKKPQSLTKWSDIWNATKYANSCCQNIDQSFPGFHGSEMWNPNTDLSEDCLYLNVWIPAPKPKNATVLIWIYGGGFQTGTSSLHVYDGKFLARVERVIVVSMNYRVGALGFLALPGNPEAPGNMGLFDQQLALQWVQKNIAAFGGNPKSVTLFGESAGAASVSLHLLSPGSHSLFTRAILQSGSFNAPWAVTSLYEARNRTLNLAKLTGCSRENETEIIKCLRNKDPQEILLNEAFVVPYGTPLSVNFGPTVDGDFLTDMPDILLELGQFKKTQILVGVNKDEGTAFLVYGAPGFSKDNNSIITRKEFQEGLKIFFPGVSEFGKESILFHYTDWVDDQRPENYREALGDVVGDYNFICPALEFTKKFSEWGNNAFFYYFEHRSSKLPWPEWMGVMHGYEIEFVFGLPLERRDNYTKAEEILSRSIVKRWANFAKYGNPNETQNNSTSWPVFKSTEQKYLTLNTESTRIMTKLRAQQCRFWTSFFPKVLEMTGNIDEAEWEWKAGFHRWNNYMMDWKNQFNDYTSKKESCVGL
# Chain of AChE (P22303 32-614): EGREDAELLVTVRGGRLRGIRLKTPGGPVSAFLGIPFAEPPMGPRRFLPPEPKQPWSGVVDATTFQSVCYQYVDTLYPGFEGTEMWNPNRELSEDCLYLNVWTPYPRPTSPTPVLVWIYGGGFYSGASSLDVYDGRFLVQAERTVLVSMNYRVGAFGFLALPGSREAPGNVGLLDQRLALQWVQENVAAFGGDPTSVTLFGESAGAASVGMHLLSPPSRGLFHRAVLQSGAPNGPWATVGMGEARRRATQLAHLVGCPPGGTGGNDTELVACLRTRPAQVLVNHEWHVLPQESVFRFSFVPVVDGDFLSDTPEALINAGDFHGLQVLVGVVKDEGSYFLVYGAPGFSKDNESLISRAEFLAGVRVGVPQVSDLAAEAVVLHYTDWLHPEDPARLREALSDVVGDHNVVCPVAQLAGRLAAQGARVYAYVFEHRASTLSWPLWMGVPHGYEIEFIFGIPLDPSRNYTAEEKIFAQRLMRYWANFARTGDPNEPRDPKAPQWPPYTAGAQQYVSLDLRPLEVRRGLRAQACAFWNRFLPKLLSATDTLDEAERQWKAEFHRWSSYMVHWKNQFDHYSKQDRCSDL
smiles,measurement,setting,value
"Cc1ccc(S(=O)(=O)n2cc(Br)c(=O)[nH]c2=O)cc1 [Compound 4, 5-Bromo-1-(toluene-4-sulfonyl)-1H-pyrimidine-2,4-dione]",fold stronger AChE inhibitory profile compared to uracil 3,AChE; vs 3,1.71 fold
same,fold active compared to neostigmine (AChE),AChE; vs neostigmine,1.54 fold
same,fold better BuChE inhibitor compared to 5,BuChE; vs 5,1.42 fold
same,fold less active compared to neostigmine (BuChE),BuChE; vs neostigmine,1.63 fold
"O=c1[nH]cc(Br)c(=O)[nH]1 [Compound 3, 5-bromo-1H-pyrimidine-2,4-dione]",fold weaker BuChE inhibitor compared to uracil derivative 4,BuChE; vs 4,2.13 fold
"CS(=O)(=O)n1cc(Br)c(=O)[nH]c1=O [Compound 5, 5-Bromo-1-methanesulfonyl-1H-pyrimidine-2,4-dione]","fold decrease of AChE inhibitory activity, mesylate vs toluene-4-sulfonyl group",AChE; 5 vs 4,1.26 fold
